# Tests used:
# Experiment in all cases: isoTOP-ABPP mapping of AEA-DA-modified peptides in Neuro2a cells
# Format in all cases: cell-based
# [1] = target: T1, AEA-DA-modified peptides in Neuro2a cells (Mus musculus, UniProt Q99J47); settings: AEA-DA-modified peptide DHRS7B Q99J47 284-300, SEQ ID NO 31; probe 100 μM, 12 replicates
# T1 construct: endogenous in cells; host or cells: Neuro2a
# [2] = target: T2, AEA-DA-modified peptides in Neuro2a cells (Mus musculus, UniProt Q8BVU5); settings: AEA-DA-modified peptide NUDT9 Q8BVU5 230-242, SEQ ID NO 73; probe 100 μM, 12 replicates
# T2 construct: endogenous in cells; host or cells: Neuro2a
# T2 sequence (Q8BVU5 47-350): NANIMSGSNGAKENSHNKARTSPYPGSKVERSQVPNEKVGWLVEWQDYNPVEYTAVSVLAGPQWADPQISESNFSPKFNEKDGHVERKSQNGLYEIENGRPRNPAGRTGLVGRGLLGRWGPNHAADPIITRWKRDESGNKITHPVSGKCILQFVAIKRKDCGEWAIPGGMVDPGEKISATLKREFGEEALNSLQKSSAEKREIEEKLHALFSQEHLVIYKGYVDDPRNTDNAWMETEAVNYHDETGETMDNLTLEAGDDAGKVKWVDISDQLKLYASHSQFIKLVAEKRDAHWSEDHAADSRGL
# [3] = target: T3, AEA-DA-modified peptides in Neuro2a cells (Mus musculus, UniProt P48678); settings: AEA-DA-modified peptide LMNA P48678 281-297, SEQ ID NO 55; probe 100 μM, 12 replicates
# T3 construct: endogenous in cells; host or cells: Neuro2a
# T3 sequence (P48678 whole entry): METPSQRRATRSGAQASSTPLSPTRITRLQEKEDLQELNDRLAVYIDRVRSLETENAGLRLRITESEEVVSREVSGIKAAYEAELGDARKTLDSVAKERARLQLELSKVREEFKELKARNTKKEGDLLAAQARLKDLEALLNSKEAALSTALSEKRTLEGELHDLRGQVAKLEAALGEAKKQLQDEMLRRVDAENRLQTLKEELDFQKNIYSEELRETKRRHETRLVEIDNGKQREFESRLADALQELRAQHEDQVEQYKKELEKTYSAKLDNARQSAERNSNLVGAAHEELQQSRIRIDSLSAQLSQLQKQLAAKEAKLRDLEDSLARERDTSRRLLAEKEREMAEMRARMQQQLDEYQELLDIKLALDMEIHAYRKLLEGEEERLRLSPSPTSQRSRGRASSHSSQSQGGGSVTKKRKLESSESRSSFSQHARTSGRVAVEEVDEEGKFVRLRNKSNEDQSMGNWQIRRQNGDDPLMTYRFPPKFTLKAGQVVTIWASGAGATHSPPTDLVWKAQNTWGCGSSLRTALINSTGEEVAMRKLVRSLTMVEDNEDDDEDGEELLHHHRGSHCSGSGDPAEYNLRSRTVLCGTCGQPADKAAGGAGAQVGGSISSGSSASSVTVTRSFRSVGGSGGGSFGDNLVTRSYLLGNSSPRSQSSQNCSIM
# [4] = target: T4, AEA-DA-modified peptides in Neuro2a cells (Mus musculus, UniProt Q9QUM9); settings: AEA-DA-modified peptide PSMA6 Q9QUM9 103-117, SEQ ID NO 89; probe 100 μM, 12 replicates
# T4 construct: endogenous in cells; host or cells: Neuro2a
# T4 sequence (Q9QUM9 whole entry): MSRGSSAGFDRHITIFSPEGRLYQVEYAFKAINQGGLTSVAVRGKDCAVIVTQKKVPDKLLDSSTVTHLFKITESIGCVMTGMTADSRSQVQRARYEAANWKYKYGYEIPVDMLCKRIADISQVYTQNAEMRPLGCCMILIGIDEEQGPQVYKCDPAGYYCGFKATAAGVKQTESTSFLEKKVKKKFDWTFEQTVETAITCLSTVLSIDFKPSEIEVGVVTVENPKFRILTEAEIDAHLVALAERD
# [5] = target: T5, AEA-DA-modified peptides in Neuro2a cells (Mus musculus, UniProt P61205); settings: AEA-DA-modified peptide ARF3 P61205 39-60, SEQ ID NO 11; probe 100 μM, 12 replicates
# T5 construct: endogenous in cells; host or cells: Neuro2a
# T5 sequence (P61205 whole entry): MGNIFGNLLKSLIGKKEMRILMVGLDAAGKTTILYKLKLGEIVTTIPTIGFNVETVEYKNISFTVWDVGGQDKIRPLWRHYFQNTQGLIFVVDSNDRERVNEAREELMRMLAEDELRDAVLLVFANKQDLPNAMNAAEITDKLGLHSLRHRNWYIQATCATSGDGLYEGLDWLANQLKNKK
# [6] = target: T6, AEA-DA-modified peptides in Neuro2a cells (Mus musculus, UniProt Q925I1); settings: AEA-DA-modified peptide ATAD3 Q92511 238-246, SEQ ID NO 16; probe 100 μM, 12 replicates
# T6 construct: endogenous in cells; host or cells: Neuro2a
# T6 sequence (Q925I1 whole entry): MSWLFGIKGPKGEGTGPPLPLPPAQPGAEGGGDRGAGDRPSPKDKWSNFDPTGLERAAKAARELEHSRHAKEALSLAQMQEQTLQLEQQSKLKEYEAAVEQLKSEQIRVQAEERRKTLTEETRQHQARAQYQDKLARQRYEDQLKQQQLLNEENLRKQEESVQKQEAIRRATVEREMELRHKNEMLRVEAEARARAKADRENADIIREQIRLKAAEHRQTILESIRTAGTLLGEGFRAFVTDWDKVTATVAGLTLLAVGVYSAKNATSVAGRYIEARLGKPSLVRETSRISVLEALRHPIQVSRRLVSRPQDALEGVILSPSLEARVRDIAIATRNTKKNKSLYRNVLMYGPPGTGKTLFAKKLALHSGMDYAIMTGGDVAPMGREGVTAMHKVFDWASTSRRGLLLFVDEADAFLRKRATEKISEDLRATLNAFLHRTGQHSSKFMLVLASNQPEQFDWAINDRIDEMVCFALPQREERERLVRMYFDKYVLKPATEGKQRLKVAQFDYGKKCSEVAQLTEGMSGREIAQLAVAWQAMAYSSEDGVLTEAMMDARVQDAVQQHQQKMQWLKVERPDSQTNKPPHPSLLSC
# [7] = target: T7, AEA-DA-modified peptides in Neuro2a cells (Mus musculus, UniProt P47867); settings: AEA-DA-modified peptide SCG3 P47867 178-203, SEQ ID NO 97; probe 100 μM, 12 replicates
# T7 construct: endogenous in cells; host or cells: Neuro2a
# T7 sequence (P47867 23-471): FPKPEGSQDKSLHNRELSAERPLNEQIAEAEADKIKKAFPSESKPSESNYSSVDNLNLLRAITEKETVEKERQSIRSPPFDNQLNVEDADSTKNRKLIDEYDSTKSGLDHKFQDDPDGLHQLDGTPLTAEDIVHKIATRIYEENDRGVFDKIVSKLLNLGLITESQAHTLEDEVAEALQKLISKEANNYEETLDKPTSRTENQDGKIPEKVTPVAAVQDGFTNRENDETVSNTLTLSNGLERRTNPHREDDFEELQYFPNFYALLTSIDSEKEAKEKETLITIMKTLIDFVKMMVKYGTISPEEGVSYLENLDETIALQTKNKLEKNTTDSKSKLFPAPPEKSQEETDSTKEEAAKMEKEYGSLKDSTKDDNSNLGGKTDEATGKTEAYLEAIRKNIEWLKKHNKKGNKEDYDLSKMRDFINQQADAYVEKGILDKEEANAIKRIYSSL
# [8] = target: T8, AEA-DA-modified peptides in Neuro2a cells (Mus musculus, UniProt P42125); settings: AEA-DA-modified peptide ECI1 P42125 276-284, SEQ ID NO 34; probe 100 μM, 12 replicates
# T8 construct: endogenous in cells; host or cells: Neuro2a
# T8 sequence (P42125 29-289): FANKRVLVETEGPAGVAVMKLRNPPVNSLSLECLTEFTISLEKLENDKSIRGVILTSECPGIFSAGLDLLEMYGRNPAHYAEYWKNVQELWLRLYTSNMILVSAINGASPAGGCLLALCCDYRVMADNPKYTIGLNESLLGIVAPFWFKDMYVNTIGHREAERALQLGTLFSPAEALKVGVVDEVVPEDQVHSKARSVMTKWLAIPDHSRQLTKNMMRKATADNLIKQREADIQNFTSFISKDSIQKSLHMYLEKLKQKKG
# [9] = target: T9, AEA-DA-modified peptides in Neuro2a cells (Mus musculus, UniProt Q9DBL9); settings: AEA-DA-modified peptide ABHD5 Q9DBL9 321-343, SEQ ID NO 2; probe 100 μM, 12 replicates
# T9 construct: endogenous in cells; host or cells: Neuro2a
# T9 sequence (Q9DBL9 whole entry): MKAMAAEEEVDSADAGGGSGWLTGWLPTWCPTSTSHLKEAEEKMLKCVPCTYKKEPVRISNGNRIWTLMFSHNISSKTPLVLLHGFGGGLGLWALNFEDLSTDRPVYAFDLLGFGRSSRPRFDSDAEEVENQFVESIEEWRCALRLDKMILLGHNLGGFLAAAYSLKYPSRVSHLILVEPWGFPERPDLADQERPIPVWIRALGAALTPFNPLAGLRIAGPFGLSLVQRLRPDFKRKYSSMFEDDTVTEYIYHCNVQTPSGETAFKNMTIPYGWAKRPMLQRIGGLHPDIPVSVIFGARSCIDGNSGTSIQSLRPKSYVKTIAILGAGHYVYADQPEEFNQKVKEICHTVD
# [10] = target: T10, AEA-DA-modified peptides in Neuro2a cells (Mus musculus, UniProt Q99K48); settings: AEA-DA-modified peptide NONO Q99K48 122-138, SEQ ID NO 69; probe 100 μM, 12 replicates
# T10 construct: endogenous in cells; host or cells: Neuro2a
# T10 sequence (Q99K48 whole entry): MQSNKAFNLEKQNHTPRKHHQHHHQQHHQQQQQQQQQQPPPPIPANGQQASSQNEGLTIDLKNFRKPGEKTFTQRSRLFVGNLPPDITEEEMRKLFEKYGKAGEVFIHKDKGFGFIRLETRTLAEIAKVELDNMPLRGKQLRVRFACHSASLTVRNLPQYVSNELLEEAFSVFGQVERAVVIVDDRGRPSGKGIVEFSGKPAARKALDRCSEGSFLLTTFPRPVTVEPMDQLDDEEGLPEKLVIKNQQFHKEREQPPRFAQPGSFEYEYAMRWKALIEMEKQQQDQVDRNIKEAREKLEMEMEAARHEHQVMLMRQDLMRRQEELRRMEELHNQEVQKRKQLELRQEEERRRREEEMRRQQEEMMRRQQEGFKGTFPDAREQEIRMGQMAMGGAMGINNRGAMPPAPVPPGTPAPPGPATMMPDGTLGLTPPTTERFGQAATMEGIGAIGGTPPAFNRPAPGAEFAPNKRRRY
# [11] = target: T11, AEA-DA-modified peptides in Neuro2a cells (Mus musculus, UniProt Q8R127); settings: AEA-DA-modified peptide SCCPDH Q8R127 145-168, SEQ ID NO 96; probe 100 μM, 12 replicates
# T11 construct: endogenous in cells; host or cells: Neuro2a
# T11 sequence (Q8R127 whole entry): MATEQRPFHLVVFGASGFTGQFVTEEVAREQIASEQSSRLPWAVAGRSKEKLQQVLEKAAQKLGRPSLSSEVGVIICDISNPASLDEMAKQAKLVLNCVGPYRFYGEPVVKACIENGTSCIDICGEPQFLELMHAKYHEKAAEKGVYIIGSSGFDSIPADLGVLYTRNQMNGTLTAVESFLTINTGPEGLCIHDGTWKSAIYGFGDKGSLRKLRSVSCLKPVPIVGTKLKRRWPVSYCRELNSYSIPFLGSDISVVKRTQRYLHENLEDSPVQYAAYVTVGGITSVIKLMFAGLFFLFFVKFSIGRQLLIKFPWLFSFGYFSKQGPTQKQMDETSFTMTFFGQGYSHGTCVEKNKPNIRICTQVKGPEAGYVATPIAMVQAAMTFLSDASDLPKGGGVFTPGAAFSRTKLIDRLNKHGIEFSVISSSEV
# [12] = target: T12, AEA-DA-modified peptides in Neuro2a cells (Mus musculus, UniProt Q99P72); settings: AEA-DA-modified peptide RTN4 Q99P72 1045-106, SEQ ID NO 94; probe 100 μM, 12 replicates
# T12 construct: endogenous in cells; host or cells: Neuro2a
# T1 sequence (Q99J47 whole entry): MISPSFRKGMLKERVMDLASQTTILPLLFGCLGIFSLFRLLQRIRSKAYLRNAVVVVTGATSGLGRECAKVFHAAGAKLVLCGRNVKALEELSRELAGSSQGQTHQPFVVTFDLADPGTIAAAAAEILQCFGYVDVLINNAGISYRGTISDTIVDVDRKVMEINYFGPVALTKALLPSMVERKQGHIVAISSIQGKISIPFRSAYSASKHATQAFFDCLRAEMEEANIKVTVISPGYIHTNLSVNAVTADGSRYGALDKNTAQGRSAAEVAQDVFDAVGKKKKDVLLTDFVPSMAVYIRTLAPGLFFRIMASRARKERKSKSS
smiles,measurement,setting,value
"C#CCCCC1(CC/C=C\C/C=C\C/C=C\CCCC(=O)NCCO)N=N1 [AEA-DA, (5Z,8Z,11Z)-N-(2-hydroxyethyl)-14-(3-(pent-4-yn-1-yl)-3H-diazirin-3-yl)tetradeca-5,8,11-trienamide]",Times observed,[1],2
same,Times observed,[2],7
same,Times observed,[3],2
same,Times observed,[4],8
same,Times observed,[5],9
same,Times observed,[6],3
same,Times observed,[7],4
same,Times observed,[8],2
same,Times observed,[9],6
same,Times observed,[10],3
same,Times observed,[11],11
same,Times observed,[12],7

# Source: US10168342B2, “Lipid probes and uses thereof” (THE SCRIPPS RESEARCH INSTITUTE, priority 2015, dated 2019)
